Like-named read-outs stand apart in the source and are kept apart here.
How the values were obtained:
[1] = test system: A2780 ovarian cancer cells; assay: Cellular proliferation in A2780 cells, Cell Titer Glo (Biological Method 4); format: cell-based; details: Homo sapiens
Method: In addition, many of the compounds of Table 1 were tested to determine their inhibitory activity in a cellular proliferation assay according to Biological Method 4.
The ability of the compounds of the invention to inhibit cellular proliferation were determined by using Cell Titer Glo, a commercially available assay from Promega Corporation. A2780 ovarian cancer cells were seeded in TC treated 96-well plates at a density of 1,000 per well in DMEM, 10% FBS, 1% Sodium Pyruvate, and 1% Penicillin Streptomycin for a minimum of 2 hrs prior to addition of compound. For each concentration of test compound, 2 μl (500×) aliquots of compound or 100% DMSO diluted in 500 μl of culture medium for 2× concentration then diluted 1× on the Cells. Cells were incubated for 72 hrs at 37° C., 5% CO2. After the 72 hour incubation, Cell Titer Glo reagent is added to determine number of viable cells remaining after exposure to the compound, and the EC50 value was calculated. The assay was performed according to the manufacturer's instruction (Promega Corporation, Madison, Wis. USA). Each experimental condition was performed in duplicate.

PI3 kinase alpha = PI3 kinase alpha (Homo sapiens, UniProt P42336); assay: PI3K ATP depletion assay (Biological Method 1, Assay 3; KinaseGlo luminescence); format: biochemical; details: ATP depletion assay, read-out: PI3 Kinase Alpha, IC50
Method: The PI3 kinase alpha IC50 values shown in Table 1 were determined according to the ATP depletion assay as disclosed herein in Biological Method 1.
Assay 3: ATP Depletion Assay
Compounds to be tested are dissolved in DMSO and directly distributed into a black 384-well plate at 1.25 μL per well. To start the reaction, 25 μL of 10 nM PI3 kinase and 5 μg/mL 1-alpha-phosphatidylinositol (PI) are added into each well followed by 25 μL of 2 μM ATP. The reaction is performed until approx 50% of the ATP is depleted, and then stopped by the addition of 25 μL of KinaseGlo solution purchased from Promega. The stopped reaction is incubated for 5 minutes and the remaining ATP is then detected via luminescence.

[2] = ovarian cancer cell line A2780, Biological Method 4

PI3 kinase alpha, sequence (P42336 whole entry): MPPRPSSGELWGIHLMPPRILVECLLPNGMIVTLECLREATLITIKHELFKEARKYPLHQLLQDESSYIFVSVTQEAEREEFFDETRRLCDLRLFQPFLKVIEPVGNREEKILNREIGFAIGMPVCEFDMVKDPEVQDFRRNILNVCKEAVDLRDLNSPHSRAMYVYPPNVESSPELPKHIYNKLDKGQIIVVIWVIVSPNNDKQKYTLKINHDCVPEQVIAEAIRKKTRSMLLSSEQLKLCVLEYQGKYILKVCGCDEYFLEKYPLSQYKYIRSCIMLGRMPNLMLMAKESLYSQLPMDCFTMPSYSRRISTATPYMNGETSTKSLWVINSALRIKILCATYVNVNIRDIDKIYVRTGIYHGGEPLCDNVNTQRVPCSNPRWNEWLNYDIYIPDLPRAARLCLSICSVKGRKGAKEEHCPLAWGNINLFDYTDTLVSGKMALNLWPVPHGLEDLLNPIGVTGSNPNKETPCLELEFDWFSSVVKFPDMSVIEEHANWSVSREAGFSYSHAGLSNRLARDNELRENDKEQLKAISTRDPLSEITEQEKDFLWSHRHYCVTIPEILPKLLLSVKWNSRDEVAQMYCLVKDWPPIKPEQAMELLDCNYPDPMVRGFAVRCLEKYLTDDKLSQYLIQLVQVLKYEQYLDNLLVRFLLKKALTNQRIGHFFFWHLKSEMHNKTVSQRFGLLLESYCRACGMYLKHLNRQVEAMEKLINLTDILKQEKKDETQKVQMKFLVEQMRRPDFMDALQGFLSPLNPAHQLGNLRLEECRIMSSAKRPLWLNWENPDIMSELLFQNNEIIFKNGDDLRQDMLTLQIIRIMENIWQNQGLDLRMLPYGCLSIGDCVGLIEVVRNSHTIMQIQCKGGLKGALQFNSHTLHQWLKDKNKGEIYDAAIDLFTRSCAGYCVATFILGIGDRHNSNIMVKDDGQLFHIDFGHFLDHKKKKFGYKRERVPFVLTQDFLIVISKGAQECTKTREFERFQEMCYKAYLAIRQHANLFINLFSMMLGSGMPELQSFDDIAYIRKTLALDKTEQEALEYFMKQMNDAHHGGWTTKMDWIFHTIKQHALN
PI3 kinase alpha, sequence (P27986 whole entry partner): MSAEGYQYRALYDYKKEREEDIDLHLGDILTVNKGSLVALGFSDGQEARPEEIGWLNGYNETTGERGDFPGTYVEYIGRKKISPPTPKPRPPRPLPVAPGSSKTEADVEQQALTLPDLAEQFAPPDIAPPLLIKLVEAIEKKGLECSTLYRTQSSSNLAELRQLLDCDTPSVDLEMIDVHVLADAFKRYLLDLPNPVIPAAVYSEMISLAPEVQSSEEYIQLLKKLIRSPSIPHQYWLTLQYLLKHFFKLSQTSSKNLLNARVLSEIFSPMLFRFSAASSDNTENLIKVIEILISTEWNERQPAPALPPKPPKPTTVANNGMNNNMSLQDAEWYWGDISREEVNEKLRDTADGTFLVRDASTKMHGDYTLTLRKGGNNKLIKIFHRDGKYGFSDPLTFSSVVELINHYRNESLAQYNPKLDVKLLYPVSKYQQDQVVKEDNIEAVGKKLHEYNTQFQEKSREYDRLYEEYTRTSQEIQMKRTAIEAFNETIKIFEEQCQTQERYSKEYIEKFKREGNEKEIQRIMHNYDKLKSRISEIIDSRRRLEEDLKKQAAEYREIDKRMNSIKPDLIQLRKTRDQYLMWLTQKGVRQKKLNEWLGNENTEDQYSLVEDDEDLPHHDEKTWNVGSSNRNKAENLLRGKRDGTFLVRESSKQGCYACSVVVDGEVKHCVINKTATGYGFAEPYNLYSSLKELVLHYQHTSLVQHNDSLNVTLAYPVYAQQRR

| Compound | EC50 ([1]; ovarian cancer cell line A2780) | IC50 (PI3 kinase alpha) | EC50 [1, 2] | IC50 (PI3 kinase alpha; Biological Method 1) |
| --- | --- | --- | --- | --- |
| CC(=O)N1CCC(Oc2cc(-c3cnc(N)cc3C(F)(F)F)nc(N3CCOCC3)n2)CC1 [Compound 19] | < 1 µM | < 1 µM |  |  |
| Nc1ncc(-c2cc(C(=O)N3CCNCC3)nc(N3CCOCC3)n2)cn1 [Compound 233] |  |  | < 10 µM | < 1 µM |
| N#Cc1cc(-c2cnc(N)nc2)nc(N2CCOCC2)n1 [Compound 237] |  |  | < 10 µM | < 1 µM |
| CN(C)CCOc1ccc(-c2cc(-c3cnc(N)nc3)nc(N3CCOCC3)n2)cn1 [Compound 223] |  |  | < 10 µM | < 1 µM |
| Nc1ccc(-c2cc(Nc3cccc(S(N)(=O)=O)c3)nc(N3CCOCC3)n2)cn1 [Compound 362] |  |  | < 10 µM | < 1 µM |
| CC(C)(C)NS(=O)(=O)c1ccccc1-c1cc(-c2cnc(N)cc2C(F)(F)F)nc(N2CCOCC2)n1 [Compound 544] | < 25 µM | < 1 µM |  |  |
| Nc1ncc(-c2cc(C(F)(F)F)nc(N3CCOCC3)n2)cn1 [Compound 472] | < 10 µM | < 1 µM |  |  |
| CS(=O)(=O)N1CCC(Oc2cc(-c3cnc(N)cc3C(F)(F)F)nc(N3CCOCC3)n2)CC1 [Compound 461] | < 10 µM | < 1 µM |  |  |
| Nc1ncc(-c2nc(N3CCOCC3)ncc2C(F)(F)F)cn1 [Compound 474] | < 25 µM | < 1 µM |  |  |
| Nc1ncc(-c2cc(Nc3cnc4ccccc4c3)nc(N3CCOCC3)n2)c(=O)[nH]1 [Compound 470] | < 10 µM |  |  |  |
| COCCNC(=O)c1cnc(N2CCOCC2)nc1-c1cnc(N)nc1 [Compound 424] |  | < 10 µM |  |  |
| CS(=O)(=O)Nc1cc(N)ncc1-c1cc(Nc2cnc3ccccc3c2)nc(N2CCOCC2)n1 [Compound 492] |  | < 1 µM |  |  |
| Cc1nc(N)ncc1-c1cc(Cl)nc(N2CCOCC2)n1 [Compound 479] |  | < 1 µM |  |  |
| Nc1ncc(-c2cc(N[C@H]3CCCC[C@@H]3OCc3ccccc3)nc(N3CCOCC3)n2)cn1 [Compound 395] |  |  |  | < 1 µM |
| Nc1cc(C(F)(F)F)c(-c2cc(O[C@@H]3CCN(C(=O)OCc4ccccc4)C3)nc(N3CCOCC3)n2)cn1 [Compound 535] |  | < 1 µM |  |  |
| Nc1ccc(-c2cc(Nc3cc4ccccc4nc3OCCN3CCCC3)nc(N3CCOCC3)n2)cn1 [Compound 286] |  |  |  | < 10 µM |
| Nc1ccc(-c2nc(N3CCOCC3)ncc2C(F)(F)F)cn1 [Compound 473] |  | < 10 µM |  |  |
| CC(C)(C)OC(=O)N1CCC[C@@H](Oc2cc(-c3cnc(N)cc3C(F)(F)F)nc(N3CCOCC3)n2)C1 [Compound 21] |  | < 1 µM |  |  |
| CN(C)CCCCNc1cc(-c2cnc(N)nc2)nc(N2CCOCC2)n1 [Compound 517] |  | < 10 µM |  |  |
| CS(=O)(=O)c1ccccc1Nc1cc(-c2cnc(N)cc2C(F)(F)F)nc(N2CCOCC2)n1 [Compound 240] |  |  |  | < 1 µM |
| Nc1cc(C(F)(F)F)c(-c2nc(N3CCOCC3)nc(N3CCOCC3)c2Cl)cn1 [Compound 312] |  |  |  | < 1 µM |
| Nc1ncc(-c2cc(N[C@@H]3CCCC[C@H]3OCc3ccccc3)nc(N3CCOCC3)n2)cn1 [Compound 397] |  |  |  | < 1 µM |
| Nc1ccc(-c2cc(NCc3cccnc3)nc(N3CCOCC3)n2)cn1 [Compound 445] |  | < 1 µM |  |  |
| N#Cc1cc(-c2cc(Nc3cnc4ccccc4c3)nc(N3CCOCC3)n2)cnc1N [Compound 366] |  |  |  | < 10 µM |
| Nc1ccc(-c2cc(Nc3cnc4c(Cl)ccc(OCCN5CCCC5=O)c4c3)nc(N3CCOCC3)n2)cn1 [Compound 493] |  | < 1 µM |  |  |
| Nc1ccc(-c2cc(-c3ccc(NCCN4CCCC4)nc3)nc(N3CCOCC3)n2)cn1 [Compound 506] |  | < 1 µM |  |  |
| Nc1cc(C(F)(F)F)c(-c2cc(O[C@@H]3CCN(C(=O)c4ccccc4)C3)nc(N3CCOCC3)n2)cn1 [Compound 536] |  | < 1 µM |  |  |

Other lines, results leading:

| EC50 ([1]; ovarian cancer cell line A2780) | IC50 (PI3 kinase alpha) | EC50 [1, 2] | IC50 (PI3 kinase alpha; Biological Method 1) | Compound |
| --- | --- | --- | --- | --- |
| < 10 µM | < 1 µM |  |  | Nc1ncc(-c2cc(N3CCCC3Cc3ccccc3)nc(N3CCOCC3)n2)cn1 (centres unmarked) [Compound 407] |
| < 10 µM | < 1 µM |  |  | Nc1ccc(-c2cc(Oc3cccnc3)nc(N3CCOCC3)n2)cn1 [Compound 512] |
| < 1 µM | < 1 µM |  |  | Nc1ncc(-c2cc(OC3CCOCC3)nc(N3CCOCC3)n2)cn1 [Compound 515] |
| < 25 µM | < 1 µM |  |  | Nc1ncc(-c2cc(CNC(=O)OC3CCOC3)nc(N3CCOCC3)n2)c(N)n1 (centres unmarked) [Compound 541] |
|  |  | < 10 µM | < 1 µM | Nc1ccc(-c2cc(Nc3ccc4c(c3)OCCO4)nc(N3CCOCC3)n2)cn1 [Compound 386] |
| < 1 µM | < 1 µM |  |  | COCCNc1cc(-c2cnc(N)nc2)nc(N2CCOCC2)n1 [Compound 14] |
| < 25 µM | < 1 µM |  |  | N#Cc1cnc(N2CCOCC2)nc1-c1cnc(N)nc1 [Compound 418] |
|  |  | < 10 µM | < 1 µM | Nc1cc(C(F)(F)F)c(-c2cc(N3CCOC(c4ccc(F)cc4)C3)nc(N3CCOCC3)n2)cn1 (centres unmarked) [Compound 335] |
| < 1 µM | < 1 µM |  |  | CC(C)(C)Nc1cc(-c2cnc(N)nc2)nc(N2CCOCC2)n1 [Compound 16] |
|  |  | < 10 µM | < 1 µM | CN1CCN(Cc2cncc(-c3cc(-c4ccc(N)nc4)nc(N4CCOCC4)n3)c2)CC1 [Compound 273] |
|  |  | < 10 µM | < 1 µM | Nc1cc(C(F)(F)F)c(-c2cc(Nc3cccc(S(=O)(=O)CCO)c3)nc(N3CCOCC3)n2)cn1 [Compound 318] |
|  |  | < 25 µM | < 1 µM | CC(C)NC(=O)C1CN(c2cc(-c3cnc(N)cc3C(F)(F)F)nc(N3CCOCC3)n2)CCO1 (centres unmarked) [Compound 330] |
|  |  | < 25 µM | < 1 µM | Nc1ncc(-c2nc(N3CCOCC3)ncc2N)cn1 [Compound 258] |
| < 10 µM | < 1 µM |  |  | CC(C)OC(=O)N1CCC(Oc2cc(-c3cnc(N)cc3C(F)(F)F)nc(N3CCOCC3)n2)CC1 [Compound 460] |
|  |  | < 25 µM | < 1 µM | Nc1ncc(-c2cc(N3CCOC(c4ccccc4)C3)nc(N3CCOCC3)n2)c(C(F)(F)F)n1 (centres unmarked) [Compound 343] |
|  |  | < 10 µM | < 1 µM | CC(=O)Nc1ccccc1-c1cc(-c2ccc(N)nc2)nc(N2CCOCC2)n1 [Compound 253] |
| < 10 µM | < 1 µM |  |  | CC(C)OC(=O)N1CC[C@H](Oc2cc(-c3cnc(N)cc3C(F)(F)F)nc(N3CCOCC3)n2)C1 [Compound 534] |
| < 10 µM | < 1 µM |  |  | CC(=O)N1CCC[C@H](Oc2cc(-c3cnc(N)nc3N)nc(N3CCOCC3)n2)C1 [Compound 529] |
| < 25 µM |  |  |  | N#Cc1cnc(Nc2cc(-c3cnc(N)nc3C(F)(F)F)nc(N3CCOCC3)n2)s1 [Compound 545] |

| EC50 ([1]; ovarian cancer cell line A2780) | IC50 (PI3 kinase alpha) | EC50 [1, 2] | IC50 (PI3 kinase alpha; Biological Method 1) | Compound |
| --- | --- | --- | --- | --- |
| < 10 µM |  |  |  | Nc1ccc(-c2cc(N3CCOCC3)nc(N3CCOCC3)n2)c(F)n1 [Compound 550] |
|  |  |  | < 10 µM | Nc1ccc(-c2cc(N3CCOC(C(=O)O)C3)nc(N3CCOCC3)n2)cn1 (centres unmarked) [Compound 339] |
|  |  |  | < 10 µM | CC(=O)Nc1ccccc1Nc1cc(-c2ccc(N)nc2)nc(N2CCOCC2)n1 [Compound 353] |
|  | < 1 µM |  |  | Nc1cc(C(F)(F)F)c(-c2cc(N3CCN(c4ccccc4)C(=O)C3)nc(N3CCOCC3)n2)cn1 [Compound 416] |
|  | < 10 µM |  |  | CN(C)c1ncccc1-c1cc(-c2ccc(N)nc2)nc(N2CCOCC2)n1 [Compound 504] |
|  | < 10 µM |  |  | CS(=O)(=O)Nc1cc(-c2ccc(N)nc2)nc(N2CCOCC2)n1 [Compound 510] |
|  | < 1 µM |  |  | Nc1cc(C(F)(F)F)c(-c2cc(N3CCOCC3c3ccc(F)cc3)nc(N3CCOCC3)n2)cn1 (centres unmarked) [Compound 485] |
|  |  |  | < 1 µM | Nc1ccc(-c2cc(Nc3cccc4cn[nH]c34)nc(N3CCOCC3)n2)cn1 [Compound 346] |
|  | < 10 µM |  |  | Nc1ccc(-c2cc(NCCc3ccncc3)nc(N3CCOCC3)n2)cn1 [Compound 435] |
|  |  |  | < 1 µM | CN1CCC(Oc2ccc(-c3cc(-c4ccc(N)nc4)nc(N4CCOCC4)n3)cn2)CC1 [Compound 226] |
|  | < 10 µM |  |  | CC(C)N1CCN(c2nc3ccccc3cc2-c2cc(-c3ccc(N)nc3)nc(N3CCOCC3)n2)CC1 [Compound 502] |
|  | < 1 µM |  |  | Nc1ccc(-c2cc(C(F)(F)F)nc(N3CCOCC3)n2)cn1 [Compound 471] |
|  | < 10 µM |  |  | Cc1c(-c2cnc(N)nc2)nc(N2CCOCC2)nc1-c1ccccc1S(=O)(=O)NC(C)(C)C [Compound 547] |
|  | < 10 µM |  |  | CC(=O)NCCNC(=O)c1cnc(N2CCOCC2)nc1-c1cnc(N)nc1 [Compound 423] |
|  |  |  | < 1 µM | CC(=O)N1CCc2cccc(Nc3cc(-c4ccc(N)nc4)nc(N4CCOCC4)n3)c21 [Compound 354] |
|  |  |  | < 1 µM | CN(C)CCOc1ccc(-c2cc(-c3ccc(N)nc3)nc(N3CCOCC3)n2)cn1 [Compound 225] |
|  |  |  | < 1 µM | Nc1ccc(-c2cc(-c3nnn[nH]3)nc(N3CCOCC3)n2)cn1 [Compound 309] |
|  |  |  | < 10 µM | Nc1ccc(-c2cc(Sc3ncc[nH]3)nc(N3CCOCC3)n2)cn1 [Compound 296] |
|  | < 1 µM |  |  | Nc1cc(C(F)(F)F)c(-c2cc(Nc3ccc(NCC(=O)O)nc3)nc(N3CCOCC3)n2)cn1 [Compound 490] |

Source: US8217035B2, “Pyrimidine derivatives used as PI-3-kinase inhibitors” (Novartis AG, priority 2006, dated 2012)
